The text below walks through data of US20260152487A1 (Sitryx Therapeutics Limited, priority 2021, published 2026).

This test deals with T1, recombinant human PKM2 (Homo sapiens, UniProt P14618).
T1 construct: His (N); purchased R&D Systems
In words: Human PKM2 activation assay (Kinase-Glo Plus luminescent detection of generated ATP). The test is classed as biochemical. The following applies: for Emax: percentage activation normalised to DMSO vehicle (LOW) and 5 μM TEPP-46 (HIGH), read-out: hPKM2 Emax; for EC50: recombinant human PKM2 activation, 4-parameter logistic fit, read-out: hPKM2 EC50. How it is done: Compound activation of recombinant human PKM2 pyruvate kinase activity was determined by biochemical assay. N-terminal His-tagged hPKM2 was sourced from R&D Systems and its substrates phosphoenolpyruvate (PEP) and ADP from Sigma-Aldrich and 2Bscientific Ltd, respectively. The Kinase-Glo® Plus luminescence assay was from Promega. All other reagents were from Sigma-Aldrich. Test Compounds were prepared as 10 mM DMSO stocks and dilution series prepared in DMSO for direct dilution into Assay Buffer comprising 50 mM imidazole, 50 mM KCl, 7 mM MgCl2, 0.01% Tween20, 0.05% BSA (pH 7.2).
Human PKM2 was diluted into Assay Buffer comprising 50 mM imidazole, 50 mM KCl, 7 mM MgCl2, 0.01% Tween20, 0.05% BSA (pH 7.2) to a final concentration of […]. Enzyme-Assay Buffer mix was dispensed into a 384-well shallow-well white-walled plate (PerkinElmer) and Test Compounds added by acoustic dispense (Echo®, Labcyte Inc.).
After 60 minutes' incubation on an orbital shaker (300 rpm, 26° C.), enzyme activity was quantified by the luminescent detection of generated ATP. Kinase-Glo® Plus reagent was added to each well and the plates incubated for a further 15 minutes on an orbital shaker in the dark (300 rpm, 26° C.) before luminescence measurement on a plate reader (PHERAstar® FSX, BMG Labtech).
Percentage activation was calculated by normalising […] signals to plate LOW (DMSO vehicle) and HIGH (5 μM TEPP-46) controls. EC50 and Emax values were determined from 4-parameter logistic fits of compound concentration-response curves.

T1 sequence (P14618 2-531 limits assumed): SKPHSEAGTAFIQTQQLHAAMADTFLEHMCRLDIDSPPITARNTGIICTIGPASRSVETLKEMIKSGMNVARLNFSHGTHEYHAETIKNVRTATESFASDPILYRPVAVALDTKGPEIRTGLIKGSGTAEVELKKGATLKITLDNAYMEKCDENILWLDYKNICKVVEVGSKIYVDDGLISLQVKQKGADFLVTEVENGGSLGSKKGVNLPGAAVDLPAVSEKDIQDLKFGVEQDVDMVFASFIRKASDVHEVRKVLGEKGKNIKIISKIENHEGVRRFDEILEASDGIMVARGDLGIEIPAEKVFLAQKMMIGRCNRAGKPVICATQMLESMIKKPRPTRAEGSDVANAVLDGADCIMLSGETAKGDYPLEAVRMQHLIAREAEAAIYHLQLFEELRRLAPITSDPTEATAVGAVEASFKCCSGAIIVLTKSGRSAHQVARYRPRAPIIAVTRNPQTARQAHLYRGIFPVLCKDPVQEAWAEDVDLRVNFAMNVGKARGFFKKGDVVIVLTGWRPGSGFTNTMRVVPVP

In general, Emax refers to the size of the effect at its maximum, as opposed to the concentration needed. The term EC50 denotes the concentration at which the effect is half-maximal. In the case of `COc1cnc(Cn2ncc3cc(S(=O)(=O)c4ccccc4)ccc3c2=O)cn1` [Example 87, 2-((5-methoxypyrazin-2-yl)methyl)-6-(phenylsulfonyl)phthalazin-1(2H)-one], the Emax stood at 85.8% and the EC50 was 0.475 µM.

For the molecule `COc1ncccc1Cn1ncc2cc(S(=O)(=O)c3ccccc3)ccc2c1=O` [Example 88, 2-((2-methoxypyridin-3-yl)methyl)-6-(phenylsulfonyl)phthalazin-1(2H)-one], the Emax is 93.2% and the EC50 is 0.618 µM.

Consider `NC(=O)c1c(Cl)cccc1Cn1ncc2cc(S(=O)(=O)c3ccccc3)ccc2c1=O` [Example 91, 2-chloro-6-((1-oxo-6-(phenylsulfonyl)phthalazin-2(1H)-yl)methyl)benzamide], for which the Emax came out at 89.9% and the EC50 is 0.554 µM.

Regarding `COc1cccc(Cn2ncc3cc(S(=O)(=O)c4ccccc4)ccc3c2=O)c1C(N)=O` [Example 92, 2-methoxy-6-((1-oxo-6-(phenylsulfonyl)phthalazin-2(1H)-yl)methyl)benzamide], the Emax is 98.9% and the EC50 was 0.158 µM.

Regarding `NC(=O)c1nc(Cn2ncc3cc(S(=O)(=O)c4ccccc4)ccc3c2=O)cs1` [Example 93, 4-((1-oxo-6-(phenylsulfonyl)phthalazin-2(1H)-yl)methyl)thiazole-2-carboxamide], the Emax came out at 108% and the EC50 worked out at 0.411 µM.

Take `Cc1onc(C(N)=O)c1Cn1ncc2cc(S(=O)(=O)c3ccccc3)ccc2c1=O` [Example 94, 5-methyl-4-((1-oxo-6-(phenylsulfonyl)phthalazin-2(1H)-yl)methyl) isoxazole-3-carboxamide]: the Emax worked out at 71.3% and the EC50 worked out at 0.588 µM.

Take `Cc1cc(Cn2ncc3cc(S(=O)(=O)c4ccccc4)ccc3c2=O)sn1` [Example 97, 2-((3-methylisothiazol-5-yl)methyl)-6-(phenylsulfonyl)phthalazin-1(2H)-one]: the maximal response (Emax) turned out to be 99.1% and the EC50 amounted to 0.715 µM.

For the molecule `COc1ccc(S(=O)(=O)c2ccc3c(=O)n(Cc4ccncc4O)ncc3c2)cc1` [Example 105, 2-((3-hydroxypyridin-4-yl)methyl)-6-(4-methoxyphenylsulfonyl)phthalazin-1(2H)-one], the Emax turned out to be 103% and the EC50 is 0.813 µM.

In the case of `COc1ccc(S(=O)(=O)c2ccc3c(=O)n(Cc4cnccc4O)ncc3c2)cc1` [Example 107, 2-((4-hydroxypyridin-3-yl)methyl)-6-(4-methoxyphenylsulfonyl)phthalazin-1(2H)-one], the Emax is 103% and the EC50 worked out at 0.585 µM.

On to `COc1ccc(S(=O)(=O)c2ccc3c(=O)n(Cc4ccc(OC)nc4O)ncc3c2)cc1` [Example 109, 2-((2-hydroxy-6-methoxypyridin-3-yl)methyl)-6-(4-methoxyphenylsulfonyl)phthalazin-1(2H)-one], for which the Emax is 96.5% and the EC50 is 0.141 µM.

With `O=c1c2ccc(S(=O)(=O)c3ccccc3)cc2cnn1Cc1cc(F)[nH]n1` [Example 111, 2-((5-fluoro-1H-pyrazol-3-yl)methyl)-6-(phenylsulfonyl)phthalazin-1(2H)-one], the Emax came to 124% and the EC50 worked out at 0.243 µM.

As for `COc1ccc(S(=O)(=O)c2ccc3c(=O)n(Cc4cc(C(F)(F)F)no4)ncc3c2)cc1` [Example 112, 6-(4-methoxyphenylsulfonyl)-2-((3-(trifluoromethyl)isoxazol-5-yl)methyl)phthalazin-1(2H)-one], the Emax was 66.4% and the EC50 was found to be 0.0213 µM.

Take `Nc1cccc(Cn2ncc3cc(S(=O)(=O)c4cccc5cccnc45)ccc3c2=O)c1` [Example 114, 2-(3-aminobenzyl)-6-(quinolin-8-ylsulfonyl)phthalazin-1(2H)-one]: the Emax was 97.1% and the EC50 came out at 0.208 µM.

In the case of `COc1ccc(Cn2ncc3cc(S(=O)(=O)c4ccc(C)cn4)ccc3c2=O)cn1` [Example 115, 2-((6-methoxypyridin-3-yl)methyl)-6-(5-methylpyridin-2-ylsulfonyl)phthalazin-1(2H)-one], the Emax stood at 69.8% and the half-maximal effective concentration (EC50) turned out to be 0.277 µM.

Consider `COc1cccc(S(=O)(=O)c2ccc3c(=O)n(Cc4ccc(OC)nc4)ncc3c2)c1` [Example 116, 6-(3-methoxyphenylsulfonyl)-2-((6-methoxypyridin-3-yl)methyl)phthalazin-1(2H)-one], for which the Emax was found to be 96.1% and the EC50 was found to be 0.0595 µM.

For `COc1ccc(Cn2ncc3cc(S(=O)(=O)c4ccsc4C(N)=O)ccc3c2=O)cn1` [Example 117, 3-(2-((6-methoxypyridin-3-yl)methyl)-1-oxo-1,2-dihydrophthalazin-6-ylsulfonyl)thiophene-2-carboxamide], the Emax worked out at 77% and the EC50 amounted to 0.177 µM.

Regarding `COc1ccc(Cn2ncc3cc(S(=O)(=O)c4csc(C(N)=O)c4)ccc3c2=O)cn1` [Example 118, 4-(2-((6-methoxypyridin-3-yl)methyl)-1-oxo-1,2-dihydrophthalazin-6-ylsulfonyl)thiophene-2-carboxamide], the Emax stood at 93.2% and the half-maximal effective concentration (EC50) stood at 0.0602 µM.

In the case of `Nc1cccc(Cn2ncc3cc([S+]([O-])c4ccccc4)ccc3c2=O)c1` (stereo not drawn) [Example 119, 2-(3-aminobenzyl)-6-(phenylsulfinyl)phthalazin-1(2H)-one], the Emax is 98.8% and the EC50 was determined as 0.348 µM.

For the molecule `N=S(=O)(c1ccccc1)c1ccc2c(=O)n(Cc3cccc(N)c3)ncc2c1` (stereo not drawn) [Example 120, 2-(3-aminobenzyl)-6-(phenylsulfonimidoyl)phthalazin-1(2H)-one], the maximum response (Emax) was 103% and the EC50 amounted to 0.234 µM.

Consider `Nc1cccc(Cn2ncc3cc(S(=O)(=O)c4cccnc4)ccc3c2=O)c1` [Example 121, 2-(3-aminobenzyl)-6-(pyridin-3-ylsulfonyl)phthalazin-1(2H)-one], for which the Emax turned out to be 116% and the EC50 stood at 0.62 µM.

For the molecule `COc1ccc(Cn2ncc3cc(S(=O)(=O)Nc4ccccc4)ccc3c2=O)cn1` [Example 122, 2-((6-methoxypyridin-3-yl)methyl)-1-oxo-N-phenyl-1,2-dihydrophthalazine-6-sulfonamide], the Emax stood at 60% and the EC50 is 0.59 µM.

Turning to `COc1ccc(Cn2ncc3cc(S(=O)(=O)c4cccc5[nH]ncc45)ccc3c2=O)cn1` [Example 123, 6-((1H-indazol-4-yl)sulfonyl)-2-((6-methoxypyridin-3-yl)methyl)phthalazin-1(2H)-one], the Emax was 74.4% and the EC50 was found to be 0.123 µM.

Turning to `COc1ccc(Cn2ncc3cc(S(=O)(=O)c4ccc(OC(F)F)nc4)ccc3c2=O)cn1` [Example 124, 6-((6-(difluoromethoxy)pyridin-3-yl)sulfonyl)-2-((6-methoxypyridin-3-yl)methyl)phthalazin-1(2H)-one], the Emax is 107% and the half-maximal effective concentration (EC50) was 0.0313 µM.

Take `COc1ccc(Cn2ncc3cc(OC4(c5ccccc5)COC4)ncc3c2=O)cn1` [Example 125, 3-((6-methoxypyridin-3-yl)methyl)-7-((3-phenyloxetan-3-yl)oxy)pyrido[3,4-d]pyridazin-4(3H)-one]: the Emax worked out at 88.8% and the EC50 is 0.458 µM.

As to `COc1ccc(Cn2ncc3cc(S(=O)(=O)c4ccc5c(c4)CCO5)ccc3c2=O)cn1` [Example 126, 6-((2,3-dihydrobenzofuran-5-yl)sulfonyl)-2-((6-methoxypyridin-3-yl)methyl)phthalazin-1(2H)-one], the Emax amounted to 95.3% and the concentration for a half-maximal effect (EC50) was determined as 0.0189 µM.

Turning to `COc1ccc(Cn2ncc3cc(S(=O)(=O)c4cnc5c(c4)OCCO5)ccc3c2=O)cn1` [Example 130, 6-((2,3-dihydro-[1,4]dioxino[2,3-b]pyridin-7-yl)sulfonyl)-2-((6-methoxypyridin-3-yl)methyl)phthalazin-1(2H)-one], the Emax came out at 57.1% and the EC50 came to 0.225 µM.

Turning to `COc1ccc(Cn2ncc3cc(S(=O)(=O)c4cc[nH]n4)ccc3c2=O)cn1` [Example 140, 6-((1H-pyrazol-3-yl)sulfonyl)-2-((6-methoxypyridin-3-yl)methyl)phthalazin-1(2H)-one], the Emax is 107% and the EC50 turned out to be 0.192 µM.

Consider `Nc1cccc(Cn2ncc3cc(S(=O)(=O)c4ccc5c(c4)CCO5)ccc3c2=O)c1` [Example 143, 2-(3-aminobenzyl)-6-((2,3-dihydrobenzofuran-5-yl)sulfonyl)phthalazin-1(2H)-one], for which the Emax came to 104% and the EC50 was determined as 0.0277 µM.

`Nc1cccc(Cn2ncc3cc(S(=O)(=O)c4ccccn4)ccc3c2=O)c1` [Example 144, 2-(3-aminobenzyl)-6-(pyridin-2-ylsulfonyl)phthalazin-1(2H)-one]: the Emax worked out at 114% and the EC50 was 0.144 µM.

Take `Cn1ccc(S(=O)(=O)c2ccc3c(=O)n(Cc4cccc(N)c4)ncc3c2)n1` [Example 145, 2-(3-aminobenzyl)-6-((1-methyl-1H-pyrazol-3-yl)sulfonyl)phthalazin-1(2H)-one]: the Emax was 106% and the EC50 amounted to 0.156 µM.
